This note sets out measurements from publication PMC7846450 (Science (New York, N.Y.), 2020).

SMILES strings stand for the structures.

This experiment addresses T1, Glk1 (Saccharomyces cerevisiae, UniProt P17709, F3S).
T1 sequence (P17709 1-500 F3S): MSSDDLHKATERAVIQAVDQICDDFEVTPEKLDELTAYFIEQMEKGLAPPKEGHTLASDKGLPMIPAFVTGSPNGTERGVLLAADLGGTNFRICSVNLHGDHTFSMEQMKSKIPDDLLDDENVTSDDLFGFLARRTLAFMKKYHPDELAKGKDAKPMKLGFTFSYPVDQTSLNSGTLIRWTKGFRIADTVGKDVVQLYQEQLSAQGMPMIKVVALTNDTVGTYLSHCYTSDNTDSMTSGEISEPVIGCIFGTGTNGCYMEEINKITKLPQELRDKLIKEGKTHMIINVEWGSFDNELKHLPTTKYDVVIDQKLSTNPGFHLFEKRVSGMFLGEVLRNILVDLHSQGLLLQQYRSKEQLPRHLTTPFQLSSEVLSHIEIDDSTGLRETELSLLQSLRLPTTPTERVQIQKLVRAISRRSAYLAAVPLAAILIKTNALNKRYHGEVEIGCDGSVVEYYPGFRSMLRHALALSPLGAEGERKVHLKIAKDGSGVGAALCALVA
Description: enzyme activity versus Glk1 concentration. It is filed as biochemical. As to conditions: non-polymerizing mutant.

Turning to `OC[C@H]1OC(O)[C@H](O)[C@@H](O)[C@@H]1O` (stereo partly shown) [glucose], the “enzyme activity versus Glk1 concentration” value is “NonPol-Glk1 was enzymatically active but lacked the concentration-dependent inhibition of wild-type Glk1”.
